Consider four compounds from ChEMBL document CHEMBL1201862, “PubChem BioAssay data set” (2004).

Experiment [1] addresses T1, G-protein coupled receptor 55 (Homo sapiens, UniProt Q9Y2T6). Kind of experiment: GPR55 antagonists blocking LPI-driven arrestin recruitment, primary screen, imaging, U2OS, beta-arrestin-GFP, LPI agonist (AID 2013).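 Also: antagonist potency measured as reduced agonist-driven arrestin aggregation.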 The format is functional. For orientation: Recruitment of arrestin is a read-out of receptor activation apart from second messengers.
Experiment [2] has as its target T2, Cannabinoid receptor 1 (Homo sapiens, UniProt P21554). Kind of experiment: SAR analysis of antagonists of the Cannabinoid Receptor 1 using an Image-Based Assay - Set 2. [Related pubchem assays (depositor defined):AID2013, AID2026]. The format is functional.
The target in experiment [3] is T3, G-protein coupled receptor 35 (Homo sapiens, UniProt Q9HC97). Description: SAR analysis of Agonists of the GPR35 Receptor using an Image-Based Assay - Set 2. [Related pubchem assays (depositor defined):AID2013, AID2026]. The format is functional.
Experiment [4] concerns the target T4, Cannabinoid receptor 2 (Homo sapiens, UniProt P34972). Description: SAR analysis of antagonists of the Cannabinoid Receptor 2 using an Image-Based Assay. [Related pubchem assays (depositor defined):AID2013, AID2026]. It is filed as functional.
The target of experiment [5] is T2, Cannabinoid receptor 1. Kind of experiment: SAR analysis of agonists of the Cannabinoid Receptor 1 using an Image-Based Assay - Set 2. [Related pubchem assays (depositor defined):AID2013, AID2026]. It is filed as functional.
The target in experiment [6] is T3, G-protein coupled receptor 35. Description: SAR analysis of Antagonists of the GPR35 Receptor using an Image-Based Assay - Set 3. [Related pubchem assays (depositor defined):AID2013, AID2026]. The format is functional.
Experiment [7] deals with T1, G-protein coupled receptor 55. Kind of experiment: GPR55 antagonist potency of analogs, SAR follow-up, imaging, U2OS, beta-arrestin-GFP, LPI agonist, set 2 (AID 2820). The format is functional.
The target of experiment [8] is T4, Cannabinoid receptor 2. Description: SAR analysis of agonists of the Cannabinoid Receptor 2 using an Image-Based Assay. [Related pubchem assays (depositor defined):AID2013, AID2026]. The format is functional.
The target in experiment [9] is T5, Corticotropin-releasing factor receptor 2/Corticotropin-releasing factor-binding protein (Homo sapiens, UniProt P24387+Q13324).
T5 sequence (Q13324 whole entry): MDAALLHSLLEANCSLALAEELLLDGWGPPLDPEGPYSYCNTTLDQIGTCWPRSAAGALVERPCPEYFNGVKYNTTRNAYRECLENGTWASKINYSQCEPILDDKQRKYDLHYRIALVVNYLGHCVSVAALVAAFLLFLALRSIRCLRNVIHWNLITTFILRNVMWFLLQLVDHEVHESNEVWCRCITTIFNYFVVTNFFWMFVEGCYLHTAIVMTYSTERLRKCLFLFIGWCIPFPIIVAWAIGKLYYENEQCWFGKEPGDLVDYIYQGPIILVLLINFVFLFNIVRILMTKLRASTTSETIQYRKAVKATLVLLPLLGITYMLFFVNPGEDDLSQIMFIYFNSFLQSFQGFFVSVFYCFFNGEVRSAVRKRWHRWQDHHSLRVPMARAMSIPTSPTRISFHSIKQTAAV
T5 sequence (P24387 whole entry): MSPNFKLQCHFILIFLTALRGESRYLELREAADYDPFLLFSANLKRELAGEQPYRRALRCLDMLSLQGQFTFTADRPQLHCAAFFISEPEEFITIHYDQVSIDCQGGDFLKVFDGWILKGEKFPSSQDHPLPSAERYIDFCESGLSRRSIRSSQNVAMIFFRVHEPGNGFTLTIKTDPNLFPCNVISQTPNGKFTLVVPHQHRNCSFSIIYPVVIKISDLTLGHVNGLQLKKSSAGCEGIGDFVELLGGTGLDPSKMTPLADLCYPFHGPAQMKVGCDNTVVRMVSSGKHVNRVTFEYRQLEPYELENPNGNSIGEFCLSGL
Kind of experiment: Dose Response confirmation of uHTS hits for small molecule antagonists of the CRF-binding protein and CRF-R2 receptor complex. The format is functional. Conditions: read-out: IC50_Mean.

The target of experiment [10] is T5, Corticotropin-releasing factor receptor 2/Corticotropin-releasing factor-binding protein. Description: activators of CRF receptor 2 with binding protein – uHTS hits, confirmation (AID 602473). Conditions: read-out: EC50_Mean. The format is functional.
Experiment [11] is described as follows: cells. It is filed as functional, cell-based.
The target in experiment [12] is Luciferin 4-monooxygenase (Photinus pyralis, UniProt P08659). Description: firefly luciferase enzyme inhibitors, dose response, biochemical, luminescence (AID 1891).
Experiment [13] can be described thus: Luminescence Cell-Based Dose Confirmation HTS to Identify Inhibitors of Platelet Dense Granule Release. [Related pubchem assays: 1663 (Primary HTS), 1678 (Summary of Project)]. The format is functional.
Experiment [14] in a line: cells. The format is functional, cell-based. This is another data set of the same source.
Experiment [15] is described as follows: THP-1 cell cytotoxicity, dose response, cytotoxicity control for non-replicating M. tuberculosis project (AID 489025). It is filed as functional.
The nature of experiment [16]: HepG2 cell cytotoxicity, dose response, cytotoxicity control for non-replicating M. tuberculosis project (AID 489018). It is filed as functional. Conditions: Mycobacterium tuberculosis.
Experiment [17] in a line: Vero E6 cell cytotoxicity, dose response, cytotoxicity control for non-replicating M. tuberculosis project, secondary assay (AID 492998). Conditions: Vero C1008. The format is functional, VeroE6.
The subject of the next experiment is INS1. Description: beta cell apoptosis inhibitors, cytokine rescue, dose response, luminescence, retest (AID 449756).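 Also: cell death triggered by IL-1 beta plus TNF-alpha plus IFN-gamma mixture; protective hits raise ATP signal compared with cytokine alone wells.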 It is filed as functional, cell-based. Conditions: Rattus norvegicus.
In experiment [18] the test system is Streptococcus sp. 'group A'. Description: growth inhibition of control SK(-) GAS strain, dose response, counter-screen for streptokinase expression inhibitor project, luminescence, kanamycin, BacTiterGlo, confirmation (AID 1900). It is filed as functional, organism-based.
Another experiment has as its target T6, Streptokinase A (Streptococcus pyogenes serotype M1, UniProt P10520).
T6 sequence (P10520 whole entry): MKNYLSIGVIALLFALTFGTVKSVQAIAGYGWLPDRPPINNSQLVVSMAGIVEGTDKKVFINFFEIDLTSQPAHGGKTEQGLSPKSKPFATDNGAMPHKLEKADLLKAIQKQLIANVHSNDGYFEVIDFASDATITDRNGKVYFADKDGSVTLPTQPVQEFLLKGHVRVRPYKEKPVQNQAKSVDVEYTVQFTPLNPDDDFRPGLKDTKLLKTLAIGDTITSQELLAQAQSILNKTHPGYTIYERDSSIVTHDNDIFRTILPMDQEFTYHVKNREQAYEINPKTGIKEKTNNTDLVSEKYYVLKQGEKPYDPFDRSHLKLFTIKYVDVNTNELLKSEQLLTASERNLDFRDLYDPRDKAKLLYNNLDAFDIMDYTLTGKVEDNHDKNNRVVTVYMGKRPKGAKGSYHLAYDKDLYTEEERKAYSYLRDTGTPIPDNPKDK
Kind of experiment: S. pyogenes streptokinase expression inhibitors, potency, dose response, plasminogen activation absorbance, OD405 (AID 1914).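 Also: secreted streptokinase activity via plasminogen activation per viability signal from cell pellet.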 It is filed as functional, Streptococcus pyogenes M1 GAS.

Another experiment has as its system Streptococcus. Description: Group A Streptococcus viability loss, dose response, counter-screen for streptokinase expression inhibitor project, luminescence, BacTiterGlo (AID 1915).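 Also: potency for reduction of bacterial viability or growth.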 The format is functional, organism-based. (The purpose of a counterscreen is to sort out artefacts and off-target activity.)
Experiment [19] deals with T7, Short transient receptor potential channel 4 (Mus musculus, UniProt Q9QUQ5).
T7 sequence (Q9QUQ5 whole entry): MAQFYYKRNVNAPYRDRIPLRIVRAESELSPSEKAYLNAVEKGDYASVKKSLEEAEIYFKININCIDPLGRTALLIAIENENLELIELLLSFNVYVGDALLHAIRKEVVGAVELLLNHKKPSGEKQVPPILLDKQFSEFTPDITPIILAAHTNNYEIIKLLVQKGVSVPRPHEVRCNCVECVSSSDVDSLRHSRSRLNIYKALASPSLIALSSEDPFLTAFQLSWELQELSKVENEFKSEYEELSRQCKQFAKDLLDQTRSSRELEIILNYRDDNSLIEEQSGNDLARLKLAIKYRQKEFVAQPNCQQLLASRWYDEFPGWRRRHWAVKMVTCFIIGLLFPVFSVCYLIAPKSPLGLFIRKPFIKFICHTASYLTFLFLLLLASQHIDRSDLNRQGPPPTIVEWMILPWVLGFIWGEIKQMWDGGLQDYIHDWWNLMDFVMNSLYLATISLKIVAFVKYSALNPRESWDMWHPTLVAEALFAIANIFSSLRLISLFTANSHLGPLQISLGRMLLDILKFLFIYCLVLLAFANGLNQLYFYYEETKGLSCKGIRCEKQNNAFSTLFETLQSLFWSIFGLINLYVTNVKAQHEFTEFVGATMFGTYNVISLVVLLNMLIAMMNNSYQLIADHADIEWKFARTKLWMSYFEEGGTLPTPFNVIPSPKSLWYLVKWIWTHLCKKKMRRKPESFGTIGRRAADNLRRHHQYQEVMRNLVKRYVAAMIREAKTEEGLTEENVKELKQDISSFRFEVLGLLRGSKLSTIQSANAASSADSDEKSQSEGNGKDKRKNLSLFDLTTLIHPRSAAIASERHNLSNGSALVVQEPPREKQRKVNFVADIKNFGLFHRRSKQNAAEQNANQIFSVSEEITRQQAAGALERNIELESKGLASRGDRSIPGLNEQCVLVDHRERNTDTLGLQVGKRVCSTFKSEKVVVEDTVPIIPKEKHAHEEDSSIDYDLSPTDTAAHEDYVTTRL
Description: mouse TRPC4 channel inhibitors, dose response, cell-based, HEK293 TRPC4/mu-opioid, Fluo-4 calcium (AID 434942).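 Also: potency of inhibitors blocking the TRPC4 calcium response.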 The format is functional.

In experiment [20] the target is T8, Microphthalmia-associated transcription factor (Homo sapiens, UniProt O75030).
T8 sequence (O75030 whole entry): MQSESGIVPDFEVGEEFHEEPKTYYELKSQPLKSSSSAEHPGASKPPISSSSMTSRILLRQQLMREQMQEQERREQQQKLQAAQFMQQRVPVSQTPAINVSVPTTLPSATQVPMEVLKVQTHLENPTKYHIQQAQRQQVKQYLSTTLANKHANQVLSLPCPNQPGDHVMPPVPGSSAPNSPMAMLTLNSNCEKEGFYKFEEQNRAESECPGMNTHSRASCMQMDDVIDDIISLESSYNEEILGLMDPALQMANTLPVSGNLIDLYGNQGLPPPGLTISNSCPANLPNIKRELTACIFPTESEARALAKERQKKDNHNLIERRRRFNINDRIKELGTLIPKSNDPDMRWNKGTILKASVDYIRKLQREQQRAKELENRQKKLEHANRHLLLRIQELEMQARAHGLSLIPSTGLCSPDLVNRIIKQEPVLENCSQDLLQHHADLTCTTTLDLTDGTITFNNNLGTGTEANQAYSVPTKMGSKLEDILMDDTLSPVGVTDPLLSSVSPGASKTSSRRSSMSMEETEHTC
Kind of experiment: TRPM1 promoter luciferase signal decrease, dose response, MITF inhibitor project, cell-based, SK-MEL-5, cherry-picked, set 3 (AID 493073).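 Also: SK-MEL-5 melanoma cells with luciferase driven by the MITF target TRPM1 promoter.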 The format is functional.

A short description of experiment [21]: cells. The format is functional.

The source made the active and inactive calls.

T3 sequence (Q9HC97 whole entry): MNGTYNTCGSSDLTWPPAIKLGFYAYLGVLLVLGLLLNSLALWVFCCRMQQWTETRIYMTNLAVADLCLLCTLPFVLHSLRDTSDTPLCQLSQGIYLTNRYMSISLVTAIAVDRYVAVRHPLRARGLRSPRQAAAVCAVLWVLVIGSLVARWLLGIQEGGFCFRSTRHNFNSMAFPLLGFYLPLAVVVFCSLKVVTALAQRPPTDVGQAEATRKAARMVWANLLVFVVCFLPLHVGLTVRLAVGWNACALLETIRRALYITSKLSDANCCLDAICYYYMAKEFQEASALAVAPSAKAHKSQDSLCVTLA
T2 sequence (P21554 whole entry): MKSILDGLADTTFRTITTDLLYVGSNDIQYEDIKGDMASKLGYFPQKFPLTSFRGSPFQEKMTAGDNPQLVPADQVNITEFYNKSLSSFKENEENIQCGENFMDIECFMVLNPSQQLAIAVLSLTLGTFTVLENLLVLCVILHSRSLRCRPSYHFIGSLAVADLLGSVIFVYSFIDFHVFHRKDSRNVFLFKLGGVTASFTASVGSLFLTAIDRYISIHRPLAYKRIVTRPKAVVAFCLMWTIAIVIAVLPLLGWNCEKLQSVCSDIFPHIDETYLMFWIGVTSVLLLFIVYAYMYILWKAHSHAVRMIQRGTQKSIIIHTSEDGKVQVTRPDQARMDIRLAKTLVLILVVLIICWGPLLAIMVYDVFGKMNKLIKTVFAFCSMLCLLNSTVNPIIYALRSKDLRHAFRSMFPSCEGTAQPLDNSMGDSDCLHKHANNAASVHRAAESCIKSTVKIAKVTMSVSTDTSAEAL
T4 sequence (P34972 whole entry): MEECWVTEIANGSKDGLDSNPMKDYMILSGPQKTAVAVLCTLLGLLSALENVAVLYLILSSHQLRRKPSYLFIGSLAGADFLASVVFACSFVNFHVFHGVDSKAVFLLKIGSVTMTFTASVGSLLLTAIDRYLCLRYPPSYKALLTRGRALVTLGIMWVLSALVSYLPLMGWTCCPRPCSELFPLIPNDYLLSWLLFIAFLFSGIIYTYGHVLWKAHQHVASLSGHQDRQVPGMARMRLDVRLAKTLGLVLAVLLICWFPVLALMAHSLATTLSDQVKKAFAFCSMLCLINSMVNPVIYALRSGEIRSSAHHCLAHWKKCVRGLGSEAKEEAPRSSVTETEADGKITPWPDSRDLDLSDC
T1 sequence (Q9Y2T6 whole entry): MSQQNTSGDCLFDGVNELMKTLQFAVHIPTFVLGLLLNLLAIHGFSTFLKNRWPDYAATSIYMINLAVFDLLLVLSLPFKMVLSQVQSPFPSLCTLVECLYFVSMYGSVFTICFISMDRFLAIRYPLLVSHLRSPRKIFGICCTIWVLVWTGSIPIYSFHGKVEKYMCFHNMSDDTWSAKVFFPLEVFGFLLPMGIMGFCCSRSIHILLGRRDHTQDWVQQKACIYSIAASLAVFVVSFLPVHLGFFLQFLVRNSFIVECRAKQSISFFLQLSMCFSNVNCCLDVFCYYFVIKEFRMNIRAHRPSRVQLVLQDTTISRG
Luciferin 4-monooxygenase, sequence (P08659 whole entry): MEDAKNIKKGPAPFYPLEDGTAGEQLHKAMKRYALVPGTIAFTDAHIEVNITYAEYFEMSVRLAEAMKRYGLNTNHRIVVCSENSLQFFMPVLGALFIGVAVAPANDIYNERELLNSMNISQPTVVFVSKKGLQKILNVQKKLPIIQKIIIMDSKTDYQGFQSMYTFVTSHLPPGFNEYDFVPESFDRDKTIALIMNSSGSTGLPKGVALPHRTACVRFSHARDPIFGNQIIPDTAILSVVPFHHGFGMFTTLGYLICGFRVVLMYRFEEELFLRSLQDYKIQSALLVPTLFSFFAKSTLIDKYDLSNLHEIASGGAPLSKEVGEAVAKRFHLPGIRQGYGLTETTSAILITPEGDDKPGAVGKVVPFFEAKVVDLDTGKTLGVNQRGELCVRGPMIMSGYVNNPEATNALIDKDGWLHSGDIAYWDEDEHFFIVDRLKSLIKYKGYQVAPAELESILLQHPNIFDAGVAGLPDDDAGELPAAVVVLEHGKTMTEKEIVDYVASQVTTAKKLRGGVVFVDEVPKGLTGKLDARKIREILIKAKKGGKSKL

For `COC(=O)C1=C(N)c2c(F)cccc2C1(C#N)c1ccccc1` (stereo not given), the IC50 is 2.34 µM (active) in experiment [1]; > 32 µM (inactive) on Cannabinoid receptor 1 [2]; > 32 µM (inactive) at Cannabinoid receptor 2 [4]; > 32 µM (inactive) in experiment [6]; 0.928 µM (active) in [7]; > 47.1 µM (inactive) in experiment [9]. Moreover, the EC50 in experiment [3] is > 32 µM (inactive); on Cannabinoid receptor 1 [5] it was > 32 µM (inactive); at Cannabinoid receptor 2 [8], > 32 µM (inactive); in experiment [10] it was > 53 µM (inactive).
Regarding `COc1cccc(/C=N/NC(=O)c2ccoc2C)c1O`, the EC50 in “cells [11]” is 82.2 µM (active); in [12], 4.56 µM (active); in experiment [13] it was 2.09 µM (active); in “cells [14]”, 7.29 µM (active). The values for the CC50 in [15], in [16] and in [17] were 4.17 µM (active), 6.69 µM (active) and 9.35 µM (active), respectively. Further, the AC50 in the experiment on INS1 was 3.85 µM (active).
For the compound `COc1ccc(NC(=O)c2cnn3c(O)cc(C4CCN(C(=O)OC(C)(C)C)CC4)nc23)cc1Cl`, the EC50 in experiment [18] was 3.36 µM (active); at Streptokinase A it was > 150 µM (not active); in the experiment on Streptococcus it was 17.8 µM (active); in [3], 0.506 µM (active); in [19], 1.33 µM (active); on Cannabinoid receptor 1 [5], > 32 µM (inactive). For the same compound, on Cannabinoid receptor 2 [8], the EC50 was > 32 µM (inactive). The IC50 was < 0.5 µM (active) in [1]; > 32 µM (inactive) on Cannabinoid receptor 1 [2]; > 32 µM (inactive) on Cannabinoid receptor 2 [4]; 29.4 µM (inactive) in experiment [6]; 0.422 µM (active) in [7].
In the case of `Cc1ccc(NC(=O)c2ccc([N+](=O)[O-])o2)cc1S(=O)(=O)N1CCOCC1`, the CC50 in experiment [15] was 6.1 µM (active); in experiment [16], 9.48 µM (active); in experiment [17], 6.5 µM (active). Moreover, the AC50 in [20] was 11.4 µM (active). Further, the IC50 in the experiment “cells [21]” is 18.4 µM (active).

In general, CC50 refers to the concentration giving 50% cytotoxicity. For orientation: AC50 means the midpoint of the concentration-response curve, whichever way the signal moves.
